# In patent US8697739B2, “Bicyclic acetyl-CoA carboxylase inhibitors and uses thereof” (Novartis AG, priority 2010, dated 2014):
# Like-named read-outs stand apart in the source and are kept apart here.
# Biological target: T1, human acetyl-CoA carboxylase 2 (ACC2) (Homo sapiens, UniProt O00763)
# T1 construct: The cDNA encoding amino acids 144 to 2458 of human acetyl-CoA carboxylase 2; made in house; host or cells: Sf9 insect cells (baculovirus, pFastBac1)
# Assay: Acetyl-CoA carboxylase enzyme assay (malonyl-CoA formation by LC/MS/MS)
# Type: biochemical
# Outline: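 Malonyl-CoA formation was read by LC/MS/MS MRM against a [13C3]-malonyl-CoA internal standard, after acetic acid quench. The enzyme was baculovirus/Sf9-expressed human ACC2 residues 144–2458, given 15 minutes room-temperature compound preincubation in HEPES pH 7.5 buffer with MgCl2, citrate and DTT. Substrate solution held 50 μM acetyl-CoA, 120 μM ATP and 2 mM KHCO3.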
# [1] = recombinant human ACC2 (aa 144-2458), read-out: IC50 ACC2
# T1 sequence (O00763 144-2458): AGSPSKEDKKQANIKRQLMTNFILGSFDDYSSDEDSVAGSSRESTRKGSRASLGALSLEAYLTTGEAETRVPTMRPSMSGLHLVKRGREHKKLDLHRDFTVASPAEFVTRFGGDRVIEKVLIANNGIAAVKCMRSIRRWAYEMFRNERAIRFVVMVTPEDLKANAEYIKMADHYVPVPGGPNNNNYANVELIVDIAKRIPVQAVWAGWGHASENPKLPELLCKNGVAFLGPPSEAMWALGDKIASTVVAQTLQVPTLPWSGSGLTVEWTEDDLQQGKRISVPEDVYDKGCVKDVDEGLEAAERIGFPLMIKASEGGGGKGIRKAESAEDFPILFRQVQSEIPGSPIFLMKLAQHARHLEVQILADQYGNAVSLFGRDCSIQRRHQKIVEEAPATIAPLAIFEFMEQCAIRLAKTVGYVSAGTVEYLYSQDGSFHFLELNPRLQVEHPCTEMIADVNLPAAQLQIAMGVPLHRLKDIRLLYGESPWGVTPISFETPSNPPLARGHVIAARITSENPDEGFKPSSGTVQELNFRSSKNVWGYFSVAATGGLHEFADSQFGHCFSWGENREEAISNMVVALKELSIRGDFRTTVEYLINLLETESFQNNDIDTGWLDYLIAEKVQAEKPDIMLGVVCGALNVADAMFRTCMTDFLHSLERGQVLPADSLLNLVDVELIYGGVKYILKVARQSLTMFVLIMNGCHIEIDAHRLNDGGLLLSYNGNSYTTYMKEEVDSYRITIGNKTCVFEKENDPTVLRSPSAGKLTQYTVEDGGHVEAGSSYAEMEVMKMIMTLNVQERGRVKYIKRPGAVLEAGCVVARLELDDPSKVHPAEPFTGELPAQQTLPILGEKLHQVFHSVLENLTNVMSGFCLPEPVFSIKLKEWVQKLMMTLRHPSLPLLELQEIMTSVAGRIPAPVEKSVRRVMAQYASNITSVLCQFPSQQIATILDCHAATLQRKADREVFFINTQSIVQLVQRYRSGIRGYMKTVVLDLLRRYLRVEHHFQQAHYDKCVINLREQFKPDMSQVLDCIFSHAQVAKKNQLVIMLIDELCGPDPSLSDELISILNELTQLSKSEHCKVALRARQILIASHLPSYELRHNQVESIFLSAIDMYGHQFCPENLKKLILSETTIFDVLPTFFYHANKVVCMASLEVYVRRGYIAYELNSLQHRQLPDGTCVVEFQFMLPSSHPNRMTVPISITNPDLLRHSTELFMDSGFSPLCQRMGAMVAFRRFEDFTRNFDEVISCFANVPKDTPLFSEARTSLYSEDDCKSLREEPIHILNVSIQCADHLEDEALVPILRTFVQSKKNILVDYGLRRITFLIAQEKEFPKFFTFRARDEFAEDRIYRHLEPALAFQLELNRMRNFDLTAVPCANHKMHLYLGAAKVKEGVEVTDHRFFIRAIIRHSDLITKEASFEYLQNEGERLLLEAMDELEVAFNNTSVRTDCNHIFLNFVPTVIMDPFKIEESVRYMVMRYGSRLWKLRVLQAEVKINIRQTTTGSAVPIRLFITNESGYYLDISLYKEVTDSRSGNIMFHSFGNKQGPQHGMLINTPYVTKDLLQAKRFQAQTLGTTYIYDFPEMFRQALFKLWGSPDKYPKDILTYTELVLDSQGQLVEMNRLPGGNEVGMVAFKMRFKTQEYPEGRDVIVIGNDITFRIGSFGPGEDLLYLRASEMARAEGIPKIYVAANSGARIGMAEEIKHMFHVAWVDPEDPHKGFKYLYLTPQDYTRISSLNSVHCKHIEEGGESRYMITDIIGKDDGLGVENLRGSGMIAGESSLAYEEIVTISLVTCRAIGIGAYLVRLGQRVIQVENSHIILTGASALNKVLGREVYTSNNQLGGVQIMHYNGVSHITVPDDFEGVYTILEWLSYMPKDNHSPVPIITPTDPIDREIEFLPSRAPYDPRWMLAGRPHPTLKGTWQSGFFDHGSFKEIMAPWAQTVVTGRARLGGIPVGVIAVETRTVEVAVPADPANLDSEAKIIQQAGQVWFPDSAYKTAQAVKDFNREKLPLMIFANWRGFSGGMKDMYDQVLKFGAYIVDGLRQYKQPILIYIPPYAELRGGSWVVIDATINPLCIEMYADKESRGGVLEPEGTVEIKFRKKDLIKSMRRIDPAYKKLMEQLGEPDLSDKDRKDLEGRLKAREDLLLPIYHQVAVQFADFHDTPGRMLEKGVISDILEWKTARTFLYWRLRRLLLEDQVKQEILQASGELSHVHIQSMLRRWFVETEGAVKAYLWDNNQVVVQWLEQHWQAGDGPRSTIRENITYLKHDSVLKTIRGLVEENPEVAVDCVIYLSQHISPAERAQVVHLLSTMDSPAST
smiles,measurement,setting,value
"CC1CN(C(=O)[C@H]2CC[C@H](NS(=O)(=O)c3ccc4[nH]c(-c5ccccc5)nc4c3)CC2)CC(C)O1 (some centres unmarked) [Example 620, N-((1r,4r)-4-(2,6-dimethylmorpholine-4-carbonyl)cyclohexyl)-2-phenyl-1H-benzo[d]imidazole-5-sulfonamide]",IC50,[1],58 nM
"O=C(NCCO)[C@H]1CC[C@H](NS(=O)(=O)c2ccc3[nH]c(-c4ccccc4)nc3c2)CC1 [Example 621, (1r,4r)-N-(2-hydroxyethyl)-4-(2-phenyl-1H-benzo[d]imidazole-5-sulfonamido)cyclohexanecarboxamide]",IC50,[1],1520 nM
"O=C([C@H]1CC[C@H](NS(=O)(=O)c2ccc3[nH]c(-c4ccccc4)nc3c2)CC1)N1CCC2(CC1)OCCCO2 [Example 622, N-((1r,4r)-4-(1,5-dioxa-9-azaspiro[5.5]undecane-9-carbonyl)cyclohexyl)-2-phenyl-1H-benzo[d]imidazole-5-sulfonamide]",IC50,"IC50 ACC2, recombinant human ACC2 (aa 144-2458)",411 nM
"O=C([C@H]1CC[C@H](NS(=O)(=O)c2ccc3[nH]c(-c4ccccc4)nc3c2)CC1)N1Cc2ccccc2C1 [Example 623, N-((1r,4r)-4-(isoindoline-2-carbonyl)cyclohexyl)-2-phenyl-1H-benzo[d]imidazole-5-sulfonamide]",IC50,[1],560 nM
"O=C([C@H]1CC[C@H](NS(=O)(=O)c2ccc3[nH]c(-c4ccccc4)nc3c2)CC1)N1CCC2CCCCC2C1 (some centres unmarked) [Example 624, N-((1r-4r)-4-(decahydroisoquinoline-2-carbonyl)cyclohexyl)-2-phenyl-1H-benzo[d]imidazole-5-sulfonamide]",IC50,[1],246 nM
"CCCN(CC1CC1)C(=O)[C@H]1CC[C@H](NS(=O)(=O)c2ccc3[nH]c(-c4ccccc4)nc3c2)CC1 [Example 625, (1r,4r)-N-(cyclopropylmethyl)-4-(2-phenyl-1H-benzo[d]imidole-5-sulfonamido)-N-propylcyclohexanecarboxamide]",IC50,[1],80 nM
"CC1CC(C)CN(C(=O)[C@H]2CC[C@H](NS(=O)(=O)c3ccc4[nH]c(-c5ccccc5)nc4c3)CC2)C1 (some centres unmarked) [Example 626, N-((1r,4r)-4-(3,5-dimethylpiperidine-1-carbonyl)cyclohexyl)-2-phenyl-1H-benzo[d]imidazole-5-sulfonamide]",IC50,[1],78 nM
"O=C([C@H]1CC[C@H](NS(=O)(=O)c2ccc3[nH]c(-c4ccccc4)nc3c2)CC1)N1CCN(CC2CCCCC2)CC1 [Example 627, N-((1r,4r)-4-(4-(cyclohexylmethyl)piperazine-1-carbonyl)cyclohexyl)-2-phenyl-1H-benzo[d]imidazole-5-sulfonamide]",IC50,[1],2060 nM
"O=C(NCCc1ccccc1)[C@H]1CC[C@H](NS(=O)(=O)c2ccc3[nH]c(-c4ccccc4)nc3c2)CC1 [Example 628, (1r,4r)-N-phenethyl-4-(2-phenyl-1H-benzo[d]imidazole-5-sulfonamido)cyclohexanecarboxamide]",IC50,[1],408 nM
"CC(C)CNC(=O)[C@H]1CC[C@H](NS(=O)(=O)c2ccc3[nH]c(-c4ccccc4)nc3c2)CC1 [Example 629, (1r,4r)-N-isobutyl-4-(2-phenyl-1H-benzo[d]imidazole-5-sulfonamido)cyclohexanecarboxamide]",IC50,[1],1760 nM
"CC(C)CCNC(=O)[C@H]1CC[C@H](NS(=O)(=O)c2ccc3[nH]c(-c4ccccc4)nc3c2)CC1 [Example 630, (1r,4r)-N-isopentyl-4-(2-phenyl-1H-benzo[d]imidazole-5-sulfonamido)cyclohexanecarboxamide]",IC50,[1],781 nM
"CN(C)CCNC(=O)[C@H]1CC[C@H](NS(=O)(=O)c2ccc3[nH]c(-c4ccccc4)nc3c2)CC1 [Example 631, (1r,4r)-N-(2-(dimethylamino)ethyl)-4-(2-phenyl-1H-benzo[d]imidazole-5-sulfonamido)cyclohexanecarboxamide]",IC50,[1],10300 nM
"O=C(NC1CCCCC1)[C@H]1CC[C@H](NS(=O)(=O)c2ccc3[nH]c(-c4ccccc4)nc3c2)CC1 [Example 632, (1r,4r)-N-cyclohexyl-4-(2-phenyl-1H-benzo[d]imidazole-5-sulfonamido)cyclohexanecarboxamide]",IC50,[1],145 nM
"CCCCNC(=O)[C@H]1CC[C@H](NS(=O)(=O)c2ccc3[nH]c(-c4ccccc4)nc3c2)CC1 [Example 633, (1r,4r)-N-butyl-4-(2-phenyl-1H-benzo[d]imidazole-5-sulfonamido)cyclohexanecarboxamide]",IC50,[1],1170 nM
"COCCNC(=O)[C@H]1CC[C@H](NS(=O)(=O)c2ccc3[nH]c(-c4ccccc4)nc3c2)CC1 [Example 634, (1r,4r)-N-(2-methoxyethyl)-4-(2-phenyl-1H-benzo[d]imidazole-5-sulfonamido)cyclohexanecarboxamide]",IC50,[1],1680 nM
"O=C(NC1CC1)[C@H]1CC[C@H](NS(=O)(=O)c2ccc3[nH]c(-c4ccccc4)nc3c2)CC1 [Example 635, (1r,4r)-N-cyclopropyl-4-(2-phenyl-1H-benzo[d]imidazole-5-sulfonamido)cyclohexanecarboxamide]",IC50,[1],256 nM
"O=C(NC1CCCc2ccccc21)[C@H]1CC[C@H](NS(=O)(=O)c2ccc3[nH]c(-c4ccccc4)nc3c2)CC1 (some centres unmarked) [Example 636, (1r,4r)-4-(2-phenyl-1H-benzo[d]imidazole-5-sulfonamido)-N-(1,2,3,4-tetrahydronaphthalen-1-yl)cyclohexanecarboxamide]",IC50,[1],1720 nM
"O=C(NCC1CC1)[C@H]1CC[C@H](NS(=O)(=O)c2ccc3[nH]c(-c4ccccc4)nc3c2)CC1 [Example 637, (1r,4r)-N-(cyclopropylmethyl)-4-(2-phenyl-1H-benzo[d]imidazole-5-sulfonamido)cyclohexanecarboxamide]",IC50,[1],372 nM
"O=C(NC1Cc2ccccc2C1)[C@H]1CC[C@H](NS(=O)(=O)c2ccc3[nH]c(-c4ccccc4)nc3c2)CC1 [Example 638, (1r,4r)-N-(2,3-dihydro-1H-inden-2-yl)-4-(2-phenyl-1H-benzo[d]imidazole-5-sulfonamido)cyclohexanecarboxamide]",IC50,[1],125 nM
"O=C(NCC1CCCCC1)[C@H]1CC[C@H](NS(=O)(=O)c2ccc3[nH]c(-c4ccccc4)nc3c2)CC1 [Example 639, (1r,4r)-N-(cyclohexylmethyl)-4-(2-phenyl-1H-benzo[d]imidazole-5-sulfonamido)cyclohexanecarboxamide]",IC50,[1],352 nM
"O=C(NCc1cccnc1)[C@H]1CC[C@H](NS(=O)(=O)c2ccc3[nH]c(-c4ccccc4)nc3c2)CC1 [Example 640, (1r,4r)-4-(2-phenyl-1H-benzo[d]imidazole-5-sulfonamido)-N-(pyridin-3-ylmethyl)cyclohexanecarboxamide]",IC50,[1],960 nM
"O=C(NCC1CCCCCC1)[C@H]1CC[C@H](NS(=O)(=O)c2ccc3[nH]c(-c4ccccc4)nc3c2)CC1 [Example 641, (1r,4r)-N-(cycloheptylmethyl)-4-(2-phenyl-1H-benzo[d]imidazole-5-sulfonamido)cyclohexanecarboxamide]",IC50,[1],276 nM
"COCCCNC(=O)[C@H]1CC[C@H](NS(=O)(=O)c2ccc3[nH]c(-c4ccccc4)nc3c2)CC1 [Example 642, (1r,4r)-N-(3-methoxypropyl)-4-(2-phenyl-1H-benzo[d]imidazole-5-sulfonamido)cyclohexanecarboxamide]",IC50,[1],1340 nM
"O=C(NCCc1cccnc1)[C@H]1CC[C@H](NS(=O)(=O)c2ccc3[nH]c(-c4ccccc4)nc3c2)CC1 [Example 643, (1r,4r)-4-(2-phenyl-1H-benzo[d]imidazole-5-sulfonamido)-N-(2-(pyridin-3-yl)ethyl)cyclohexanecarboxamide]",IC50,[1],283 nM
"O=C(NCc1cc(F)cc(F)c1)[C@H]1CC[C@H](NS(=O)(=O)c2ccc3[nH]c(-c4ccccc4)nc3c2)CC1 [Example 644, (1r,4r)-N-(3,5-difluorobenzyl)-4-(2-phenyl-1H-benzo[d]imidazole-5-sulfonamido)cyclohexanecarboxamide]",IC50,[1],588 nM
"O=C(Nc1cccc2ccccc12)[C@H]1CC[C@H](NS(=O)(=O)c2ccc3[nH]c(-c4ccccc4)nc3c2)CC1 [Example 645, (1r,4r)-N-(naphthalen-1-yl)-4-(2-phenyl-1H-benzo[d]imidazole-5-sulfonamido)cyclohexanecarboxamide]",IC50,[1],1060 nM
"O=C(Nc1cc(F)cc(F)c1)[C@H]1CC[C@H](NS(=O)(=O)c2ccc3[nH]c(-c4ccccc4)nc3c2)CC1 [Example 646, (1r,4r)-N-(3,5-difluorophenyl)-4-(2-phenyl-1H-benzo[d]imidazole-5-sulfonamido)cyclohexanecarboxamide]",IC50,[1],1340 nM
"O=C(Nc1ccc2ncccc2c1)[C@H]1CC[C@H](NS(=O)(=O)c2ccc3[nH]c(-c4ccccc4)nc3c2)CC1 [Example 647, (1r,4r)-4-(2-phenyl-1H-benzo[d]imidazole-5-sulfonamido)-N-(quinolin-6-yl)cyclohexanecarboxamide]",IC50,[1],726 nM
"O=C(Nc1cccc(C(F)(F)F)c1)[C@H]1CC[C@H](NS(=O)(=O)c2ccc3[nH]c(-c4ccccc4)nc3c2)CC1 [Example 648, (1r,4r)-4-(2-phenyl-1H-benzo[d]imidazole-5-sulfonamido)-N-(3-(trifluoromethyl)phenyl)cyclohexanecarboxamide]",IC50,[1],1840 nM
"O=C(Nc1cccnc1)[C@H]1CC[C@H](NS(=O)(=O)c2ccc3[nH]c(-c4ccccc4)nc3c2)CC1 [Example 649, (1r,4r)-4-(2-phenyl-1H-benzo[d]imidazole-5-sulfonamido)-N-(pyridin-3-yl)cyclohexanecarboxamide]",IC50,[1],387 nM
"O=C([C@H]1CC[C@H](NS(=O)(=O)c2ccc3[nH]c(-c4ccccc4)nc3c2)CC1)N1CCOCC1 [Example 650, N-((1r,4r)-4-(morpholine-4-carbonyl)cyclohexyl)-2-phenyl-1H-benzo[d]imidazole-5-sulfonamide]",IC50,[1],304 nM
"CC(C)(C)c1nnc([C@H]2CC[C@H](NS(=O)(=O)c3ccc4[nH]c(C5CC5)nc4c3)CC2)o1 [Example 651, N-((1r,4r)-4-(5-tert-butyl-1,3,4-oxadiazol-2-yl)cyclohexyl)-2-cyclopropyl-1H-benzo[d]imidazole-5-sulfonamide]",IC50,[1],6350 nM
